Measured values from patent publication US6693120B1, “Spray drying of thrombin inhibitors” (Abbott GmbH & Co. KG, priority 1999, dated 2004).

Columns and labels:
Assay type in all cases: physicochemical
[1] = Storage stability at 70° C., 1 bar in an open vessel (HPLC)
[2] = Hygroscopicity: weight gain on storage in desiccators at constant humidity; parameters: unit not given here; conditions: vacuum-dried
Experimental: To determine the hygroscopicity, samples of the dry active substance are stored in desiccators in which a constant humidity has been set by saturated salt solutions, at constant temperature. The weight change is determined by weighing at intervals of a few days. The weight gain is determined by the following formula: [formula]

[3] = HPLC content of the active substance after drying

## N-((Hydroxycarbonyl)methylene)-(R)-cyclohexylalanyl-(S)-3,4-dehydroproline 6-Amidino-3-Picoli-nylamide [Betaine (n = 0)]
[1]; 0 days
  active substance content based on initial active substance content: 100 HPLC % areas
[1]; 7 days
  active substance content based on initial active substance content: 92.5 HPLC % areas
[1]; 14 days
  active substance content based on initial active substance content: 88.6 HPLC % areas

## N-((Hydroxycarbonyl)methylen)-(R)-cyclohexylalanyl-(S)-3,4-dehydroproline 6-Amidino-3-picolinylamide Dihydrochloride [Betaine × 2HCl]
[1]; 0 days
  active substance content based on initial active substance content: 100 HPLC % areas
[1]; 7 days
  active substance content based on initial active substance content: 99.7 HPLC % areas
[1]; 14 days
  active substance content based on initial active substance content: 99.7 HPLC % areas

## N-((Hydroxycarbonyl)methylene)-(R)-cyclohexylalanyl-(S)-3,4-dehydroproline 6-Amidino-3-picolinylamide Hydrochloride [Betaine × HCl]
[2]; 45% R.H., 0 days
  weight gain: 0
[2]; 45% R.H., 3 days
  weight gain: 0.28
[2]; 45% R.H., 6 days
  weight gain: 0.31
[2]; 45% R.H., 9 days
  weight gain: 0.26
[2]; 45% R.H., 14 days
  weight gain: 0.23
[2]; 45% R.H., 21 days
  weight gain: 0.26
[2]; 65% R.H., 0 days
  weight gain: 0
[2]; 65% R.H., 3 days
  weight gain: 3.50
[2]; 65% R.H., 6 days
  weight gain: 3.86
[2]; 65% R.H., 9 days
  weight gain: 3.59
[2]; 65% R.H., 14 days
  weight gain: 3.54
[2]; 65% R.H., 21 days
  weight gain: 3.45
[2]; 75% R.H., 0 days
  weight gain: 0
[2]; 75% R.H., 3 days
  weight gain: 7.60
[2]; 75% R.H., 6 days
  weight gain: 9.31
[2]; 75% R.H., 9 days
  weight gain: 7.98
[2]; 75% R.H., 14 days
  weight gain: 7.84
[2]; 75% R.H., 21 days
  weight gain: 7.86
[2]; 86% R.H., 0 days
  weight gain: 0
[2]; 86% R.H., 3 days
  weight gain: 15.51
[2]; 86% R.H., 6 days
  weight gain: 20.23
[2]; 86% R.H., 9 days
  weight gain: 16.66
[2]; 86% R.H., 14 days
  weight gain: 16.61
[2]; 86% R.H., 21 days
  weight gain: 16.14
[2]; 93% R.H., 0 days
  weight gain: 0
[2]; 93% R.H., 3 days
  weight gain: 19.73
[2]; 93% R.H., 6 days
  weight gain: 20.34
[2]; 93% R.H., 9 days
  weight gain: 18.97
[2]; 93% R.H., 14 days
  weight gain: 19.11
[2]; 93% R.H., 21 days
  weight gain: 18.78
[1]; 0 days
  active substance content based on initial active substance content: 100 HPLC % areas
[1]; 7 days
  active substance content based on initial active substance content: 98.5 HPLC % areas
[1]; 14 days
  active substance content based on initial active substance content: 97.5 HPLC % areas
[3]; spray dried
  HPLC content of the active substance in % areas: 98.5%
  byproducts: no additional
[3]; vacuum dried (60° C./12 h)
  HPLC content of the active substance in % areas: 97.8%
  byproducts: additional byproducts
